Where two headings read alike, the source gives them in different places.

Data on two compounds can be found in PMC7004148, “Flexible Fragment Growing Boosts Potency of Quorum‐Sensing Inhibitors against Pseudomonas aeruginosa Virulence” (Chemmedchem, 2019).

For data set [1], the system named is HQNO levels in PA14pqsH strain. Put plainly: HQNO quantification in PA14pqsH cultures (UHPLC-MS/MS). The class given is cell-based. Conditions: Pseudomonas aeruginosa, read-out: HQNO inhibition. Here is the method:
(§1) determine IC50 values using a log (inhibitor) vs. response model with constrains (bottom = 0; top =100) (Graph Pad Prism 5.04).
(§2) HHQ and HQNO Quantification. Extracellular HHQ and HQNO were measured as previously reported[29] following a modified procedure of Lépine et al.:[30] Briefly, P. aeruginosa PA14pqsH cultures were grown in the presence of DMSO as a control or DMSO solutions of inhibitors for 17 h. HHQ and HQNO were quantified from ethyl acetate extracts using 5,6,7,8-tetradeutero-2-heptyl-4(1H)-quinolone (HHQ-d4) as internal standard (IS).
(§3) UHPLC-MS/MS analysis was performed as described in detail by Storz et al.[31] The following ions were monitored (mother ion [m/z], product ion [m/z], scan time [s], scan width [m/z], […]
(§4) quantification was performed using Xcalibur software with the use of a calibration curve relative to the area of the IS. Given data represent the mean of at least two independent experiments with n=3 and were expressed as percentage inhibition relative to DMSO control.

Data set [2] deals with T1, PqsR (Pseudomonas aeruginosa, UniProt Q9I4X0). Put plainly: biochemical. The class given is binding. More on the design: H6SUMOPqsRc87 and T265A mutant H6SUMOPqsRc87 for ITC studies was expressed; made in house; host or cells: E. coli BL21 (λDE3). The conditions noted are these: for EE: enthalpic efficiency. Here is the method:
3.2 Expression and Purification of H6SUMOPqsRc87
(§5) H6SUMOPqsRc87 and T265A mutant H6SUMOPqsRc87 for ITC studies was expressed and purified as previously reported.[8,9] Briefly, E. coli BL21 (λDE3) transfected with the pSUMO3_ck4_pqsRC87 or pSUMO3_ck4_T265ApqsRC87 plasmid[8] were grown in LB medium containing 50 µg mL-1 kanamycin at 37 °C to an OD600 of approximately 0.8 and expression was induced with 0.2 mM IPTG for 16 h at 16 °C. The protein was purified using nickel affinity chromatography in a one step gradient.
ITC titrations were performed as described before.[8,9] Briefly, ITC experiments were carried out using an ITC200 instrument (Microcal Inc., GE Healthcare). The titrations were performed on 50-150 µM H6SUMO-PqsRC87 in the 200 µL sample cell using 19 injections of 2 µL ligand solution (0.5-1.5 mM) every 180 s. The data were collected and the area under each peak was integrated. To correct for heats of dilution and mixing the final base line consisting of small peaks of the same size at the end of the titration were substracted.
Target sequence in this assay (Q9I4X0 87-332): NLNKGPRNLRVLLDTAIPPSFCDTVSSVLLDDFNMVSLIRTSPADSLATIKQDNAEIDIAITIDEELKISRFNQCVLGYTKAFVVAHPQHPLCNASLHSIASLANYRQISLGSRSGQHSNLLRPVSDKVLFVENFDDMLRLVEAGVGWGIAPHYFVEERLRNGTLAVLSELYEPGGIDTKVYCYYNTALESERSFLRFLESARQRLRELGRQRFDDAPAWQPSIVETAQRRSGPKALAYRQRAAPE

Data set [3] relates to HHQ levels in PA14pqsH strain. Put plainly: HHQ quantification in PA14pqsH cultures (UHPLC-MS/MS). The format is cell-based. The conditions noted are these: Pseudomonas aeruginosa, read-out: HHQ inhibition. The protocol: as §1, §2, §3, §4
The target in another data set is T2, PqsRT265A (Pseudomonas aeruginosa, UniProt Q9I4X0, T265A).
T2 construct: H6SUMOPqsRc87 and T265A mutant H6SUMOPqsRc87 for ITC studies was expressed; made in house; host or cells: E. coli BL21 (λDE3)
T2 sequence (Q9I4X0 87-332 T265A): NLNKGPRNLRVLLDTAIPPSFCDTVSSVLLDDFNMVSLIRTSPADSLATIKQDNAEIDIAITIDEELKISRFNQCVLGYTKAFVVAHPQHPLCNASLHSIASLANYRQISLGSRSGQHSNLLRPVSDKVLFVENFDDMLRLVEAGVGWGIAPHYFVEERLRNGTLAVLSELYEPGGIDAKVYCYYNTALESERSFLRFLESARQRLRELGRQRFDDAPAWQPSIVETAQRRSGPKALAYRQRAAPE
Put plainly: ITC thermodynamic signature, PqsRwt versus PqsRT265A mutant. The format is binding. Conditions: comparison of thermodynamic signatures (SI, Figure S3). The protocol: 3. Isothermal Titration Calorimetry
3.1 Site-directed Mutagenesis: PqsRT265A mutant
The plasmid pSUMO3_ck4_T265ApqsRC87 was generated as previously described[8] using QuikChange Site-Directed Mutagenesis Kit (Stratagene) following the manufacturer’s instructions. The following primer were used: forward 5'
3. PCR condition to amplify the T265A gene: 16 cycles with 35s denaturation at 95 °C, 60 s annealing at 55 ° C, and 13 min extension. The generated plasmid was transformed via electroporation into E. coli BL21 3.2 Expression and Purification of H6SUMOPqsRc87
as §5
ITC titrations were performed as described before.[8,9] Briefly, ITC experiments were carried out using an ITC200 instrument (Microcal Inc., GE Healthcare). The titrations were performed on 50-150 µM H6SUMO-PqsRC87 in the 200 µL sample cell using 19 injections of 2 µL ligand solution (0.5-1.5 mM) every 180 s. […]

Data set [4] has as its system pyocyanin in P. aeruginosa PA14. Put plainly: Pyocyanin assay in P. aeruginosa PA14 cultures. The conditions noted are these: mean of at least two independent experiments, SD<25 %. The format is cell-based, Pseudomonas aeruginosa PA14. Here is the method:
(§6) 6. Effects in P. aeruginosa
(§7) Pyocyanin Assay. The inhibition of virulence factor pyocyanin was measured as described previously[26] following a procedure established by Essar et al.[28] Briefly, Pseudomonas aeruginosa PA14 cultures were grown in the presence of inhibitors or DMSO as control for 16 h. Pyocyanin was determined photometrically after extraction of the cultures with chloroform and re-extraction with 0.2 M HCl. Protonated red colored pyocyanin was determined by measuring OD520 and normalizing to OD600. None of the compound impaired bacterial viability as observed by the OD600 parameter. Inhibition values were expressed in relation to the DMSO control. Each value is the mean of at least two independent experiments with n=3.
(§8) The given IC50 values represent the mean of at least two experiments using at least five different concentrations. Curve fitting was performed using the log (inhibitor) vs response model with constrained bottom = 0 and top =100 (GraphPad Prism 5.0).
(§9) Figure S4: Inhibition of virulence factor pyocyanin was evaluated in the clinical isolate PA14.
(§10) Representative dose-response curves a) compound 11 b) compound 20. Black dotes (•) represent the reduction of pyocyanin in presents of a given compound concentration relative to DMSO control (= 0 %). The continuous black line is the none -linear regression analysis to […]
(1 picture or pasted object on this page, not shown here)

Data set [5] has as its target T1, PqsR. Put plainly: PqsR β-galactosidase reporter gene assay in E. coli. The format is cell-based. More on the design: expressed in transfected cells; host or cells: E. coli DH5α carrying plasmid pEAL08-2. Conditions: E. coli reporter gene assay; 20 compared with 11. The protocol: 5. E. coli reporter-gene assay & dose-response curves
PqsR Reporter gene assay in E. coli. The inverse agonistic/antagonistic activity of potential PqsR ligands was evaluated in a β-galactosidase reporter gene assay in E. coli as previously described.[26] In short, test compounds were co-incubated with E. coli DH5α cells containing the plasmid pEAL08-2,[27] which expresses PqsR and the β-galactosidase LacZ under the control of the pqsA promoter. The inverse agonistic/antagonistic activity of compounds was measured in the presence of 50 nM PQS. After incubation, galactosidase activity was quantified photometrically and expressed as ratio of controls. The given IC50 values represent the mean of at least two independent experiments using at least eight different concentrations of test compound with n = 4. Non-linear regression analysis was done using the log (inhibitor) vs response model included in the GrapPad Prism 5.0 software package.
Target sequence in this assay (Q9I4X0 whole entry): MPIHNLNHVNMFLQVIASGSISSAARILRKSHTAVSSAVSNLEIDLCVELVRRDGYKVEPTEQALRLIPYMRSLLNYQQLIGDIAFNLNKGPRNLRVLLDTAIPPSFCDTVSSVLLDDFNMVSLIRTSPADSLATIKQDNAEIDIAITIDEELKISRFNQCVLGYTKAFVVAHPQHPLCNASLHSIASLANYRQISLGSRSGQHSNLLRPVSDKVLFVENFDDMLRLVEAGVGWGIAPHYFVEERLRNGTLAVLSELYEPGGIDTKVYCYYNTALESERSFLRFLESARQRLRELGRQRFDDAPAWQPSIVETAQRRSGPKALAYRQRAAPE
(In general: Reporter assays use an easily measured gene product as a stand-in for the process of interest.)

Data set [6] has as its system Pseudomonas aeruginosa PA14. The format is cell-based. Conditions: PA14 cultures grown 16 h in the presence of inhibitors. The protocol:
as §6, §7, §8, §9, §10

The mark [7] stands for this setting: Pseudomonas aeruginosa, PA14, read-out: Pyocyanin IC50, PA14 cultures, photometric quantification.

For orientation: inhibition means the change of the read-out against control, counted positive when it falls. By Kd is commonly meant the concentration at which binding is half-saturated. In general, IC50 refers to the concentration that inhibits the measured activity by half. For the compound `Nc1cc(NCc2ccc(F)cc2)cc(C(F)(F)F)n1` [Compound 11], the inhibition at 200 µM in data set [1] is 36 ± 3%. This compound also gave a Kd on PqsR [2] of 0.6 ± 0.2 µM. For the same compound, at PqsR [2] (Table S1), the “-TΔS” value was determined as 1.0 ± 0.8 kcal/mol, the ΔG is -8.4 ± 0.2 kcal/mol, the ΔH is -9.8 ± 0.8 kcal/mol and the EE was found to be 0.49 kcal/mol. The compound also registered an LE on PqsR [2] (Table S1, ligand efficiency) of 0.42 kcal/mol. Moreover, the inhibition at 200 µM in data set [3] amounted to 48 ± 4%. On PqsRT265A, the “Enthalpic contribution, PqsRwt versus PqsRT265A” value is listed as “no significant difference in the enthalpic contribution”. Besides, the IC50 in data set [4] (setting [7]) amounted to 105 ± 13 µM. For the same compound, the IC50 in data set [4] (read-out: Pyocyanin IC50, PA14 cultures, photometric quantification) was determined as 102 µM.
On to `Nc1cc(NCCCc2ccc(F)cc2)cc(C(F)(F)F)n1` [Compound 20], for which the figures for the inhibition at 100 µM in data set [1] and in data set [3] were 48 ± 1% and 56 ± 4%, respectively. Further, the “boost in potency (IC50) versus 11” value on PqsR [5] is recorded as 20 fold. Also, on PqsR [2] (Table S1), the EE was 0.50 kcal/mol. In addition, in data set [4] (setting [7]), the IC50 was 5.9 µM. Further, in data set [6], the “Bacterial viability (OD600)” value is reported as “without affecting bacterial viability”.
